The results in this text go back to US20230391764A1, “BENZOTHIAZOLYL BICYCLO[1.1.1]PENTANE DERIVATIVES FOR THE TREATMENT AND PROPHYLAXIS OF HEPATITIS B VIRUS INFECTION” (Hoffmann-La Roche Inc., priority 2021, published 2023).

Common to all, as to assay type: cell-based
In one data set the test system is HBsAg. Nature of the data set: PHH HBV natural infection assay, HBsAg (alphalisa). The settings on record: Hepatitis B virus, 72 h, read-out: HBsAg IC50. The protocol:
(§1) Detailed procedures regarding primary human hepatocyte (PHH) HBV natural infection assay are described as below. One tube of frozen PHH (10 million cells) is thawed in 37° C. water bath and then transferred to 20 mL of PHH thawing medium (Sigma, InVitroGRO HT Medium, Cat. S03319) with gently mixing. The cells were then centrifuged at […] for 5 min, the supernatant was discarded and the tube was refilled with 25 mL of PHH plating medium (Sigma, InVitroGRO CP Medium, Cat. S03317). The tube was shaken very gently to re-suspend all cells, and then 50 μl of cells were transferred to each well 384-well collagen I coated plate with appropriate liquid handling equipment, e.g. Integra VIAFLO384 or Agilent Bravo. The cells were then cultured for 24 hours in a cell incubator. For HBV infection, after PHH attachment on the culture plate, the plating medium was removed and replenished with PHH culture medium containing HBV virus. The PHH culture medium was prepared with Dulbecco's Modified Eagle Medium (DMEM)/F12 (1:1 in volume ratio) containing 10% fetal bovine serum (Gibco, Cat.10099141), 5 ng/mL human epidermal growth factor (Gibco, Cat.PHG0311L), 20 ng/mL dexamethasone (Sigma, Cat.D4902-100 mg), 250 ng/mL human recombinant insulin (Gibco, Cat.41400045) and 100 U/mL penicillin. HBV virus at 200 genome equivalent (GE) per cell with 4% PEG8000 (Sigma, Cat.P1458) containing culture medium were added to the PHH culture medium for infection. The cells were then cultured for 24 hours in cell incubator. Then the cell culture supernatant was removed. The HBV-infected PHH were cultured with sandwich culture method with PHH culture medium containing 1% DMSO and 0.25 mg/mL matrix gel for 72 hours. The supernatant was then refreshed with PHH culture medium containing different concentrations of testing compounds for two times with 72-hour interval. At the end of treatment, the supernatant was collected for viral markers measurements, including HBsAg, HBeAg, HBV DNA and cytotoxicity. HBsAg and HBeAg were detected using alphalisa method using their specific antibodies. For HBV DNA detection, HBV DNA Quantitative Fluorescence Diagnostic Kit (Sansure Biotech Inc.) was used following the manufacture's protocol. Cytotoxicity was determined using Cell Counting Kit-8 (CCK8, Dojindo Molecular Technologies, Inc.).
(§2) The compounds of the present invention were tested for their capacity to inhibit HBsAg and HBeAg as described herein.

For another data set, the system named is HBeAg. Kind of data set: PHH HBV natural infection assay, HBeAg (alphalisa). As to conditions: Hepatitis B virus, 72 h, read-out: HBeAg IC50. The protocol: as §1, §2
The nature of data set [1]: PHH natural infection assay, cytotoxicity (Cell Counting Kit-8). As to conditions: human; HBV-infected PHH, CCK8. The protocol: as §1
For orientation: Formazan colour is commonly taken as a measure of viable cells.

Consider `C[C@H](c1ccc(C(=O)NC23CC(c4nc5ccc(Cl)cc5s4)(C2)C3)o1)S(C)(=O)=O` (single isomer, unassigned) [Example 56a], for which the IC50 in the data set on HBsAg and in the data set on HBeAg was 230 nM throughout. It took 15000 nM to reach half-maximal cytotoxicity in data set [1] (CC50 at 144 h).
As to `C[C@@H](c1ccc(C(=O)NC23CC(c4nc5ccc(Cl)cc5s4)(C2)C3)o1)S(C)(=O)=O` (single isomer, unassigned) [Example 56b], the IC50 (usually the concentration at which inhibition is half-maximal) in the data set on HBsAg came out at 190 nM; in the data set on HBeAg, 160 nM. Besides, it took 14700 nM to reach half-maximal cytotoxicity in data set [1] (CC50 at 144 h).
In the case of `CS(=O)(=O)C1(c2ccc(C(=O)NC34CC(c5nc6ccc(Br)cc6s5)(C3)C4)o2)CC1` [Example 2, N-[1-(6-bromo-1,3-benzothiazol-2-yl)-3-bicyclo[1.1.1]pentanyl]-5-(1-methylsulfonylcyclopropyl)furan-2-carboxamide], the results for the IC50 in the data set on HBsAg and in the data set on HBeAg were 170 nM and 110 nM, respectively. Further, in data set [1], the midpoint of cytotoxicity, the CC50 at 144 h, lay at 5850 nM.
The matching figures for `CS(=O)(=O)C1(c2nsc(C(=O)NC34CC(c5nc6ccc(Br)cc6s5)(C3)C4)n2)CC1` [Example 4]: 70 nM, 50 nM and 4220 nM.
Consider `CS(=O)(=O)C1(c2ccc(C(=O)NC34CC(c5nc6cc(Br)ccc6s5)(C3)C4)o2)CC1` [Example 6, N-(3-(5-bromobenzo[d]thiazol-2-yl)bicyclo[1.1.1]pentan-1-yl)-5-(1-(methylsulfonyl)cyclopropyl)furan-2-carboxamide], for which the results for the IC50 in the data set with HBsAg and in the data set with HBeAg were 170 nM and 100 nM, respectively. Moreover, the CC50 (usually the concentration that lowers cell viability or growth by half) at 144 h in data set [1] turned out to be 6030 nM.
`CS(=O)(=O)C1(c2nsc(C(=O)NC34CC(c5nc6cc(Br)ccc6s5)(C3)C4)n2)CC1` [Example 7]: the half-maximal inhibitory concentration (IC50) stood at 100 nM with HBsAg and 60 nM in the data set with HBeAg. In data set [1], this molecule gave a CC50 at 144 h of 8520 nM.
On to `CS(=O)(=O)C1(c2ccc(C(=O)NC34CC(c5nc6ccc(C#N)cc6s5)(C3)C4)o2)CC1` [Example 8], for which the IC50 with HBsAg was 790 nM; in the data set with HBeAg it was 720 nM. This molecule had a CC50 at 144 h in data set [1] of 12500 nM.
On to `C#Cc1ccc2nc(C34CC(NC(=O)c5ccc(C6(S(C)(=O)=O)CC6)o5)(C3)C4)sc2c1` [Example 10], for which the half-maximal inhibitory concentration (IC50) in the data set on HBsAg came to 370 nM; in the data set on HBeAg it was 270 nM. In addition, the CC50 at 144 h in data set [1] amounted to 11000 nM.
The matching figures for `CS(=O)(=O)C1(c2ccc(C(=O)NC34CC(c5nc6ccc(F)cc6s5)(C3)C4)o2)CC1` [Example 11]: 480 nM, 360 nM and 16300 nM.
Consider `CS(=O)(=O)Cc1ccc(C(=O)NC23CC(c4nc5ccc(Cl)cc5s4)(C2)C3)o1` [Example 13], for which the IC50 amounted to 1020 nM in the data set with HBsAg and 800 nM in the data set with HBeAg. In addition, the 50% cytotoxic concentration (CC50) at 144 h in data set [1] was greater than 50000 nM.
As to `CCC(c1ccc(C(=O)NC23CC(c4nc5ccc(Cl)cc5s4)(C2)C3)o1)S(C)(=O)=O` (stereo not drawn) [Example 14], the figures for the IC50 with HBsAg and in the data set on HBeAg were 200 nM and 150 nM, respectively. The CC50 at 144 h in data set [1] was greater than 10000 nM.
For `CS(=O)(=O)C1(c2ccc(C(=O)NC34CC(c5nc6ccc(Cl)cc6s5)(C3)C4)o2)CC1` [Example 15], the IC50 with HBsAg was determined as 210 nM; with HBeAg, 160 nM. In data set [1], the midpoint of cytotoxicity, the CC50 at 144 h, lay at 6330 nM.
As to `CC(C)(c1ccc(C(=O)NC23CC(c4nc5ccc(Cl)cc5s4)(C2)C3)o1)S(C)(=O)=O` [Example 16], the IC50 in the data set with HBsAg came to 290 nM; in the data set with HBeAg, 240 nM. For the same molecule, the CC50 at 144 h in data set [1] turned out to be 3760 nM.
Take `CC(c1ccc(C(=O)NC23CC(c4nc5ccc(Cl)cc5s4)(C2)C3)o1)S(C)(=O)=O` (stereo not drawn) [Example 17, N-[3-(6-chloro-1,3-benzothiazol-2-yl)-1-bicyclo[1.1.1]pentanyl]-5-(1-methylsulfonylethyl)furan-2-carboxamide]: the half-maximal inhibitory concentration (IC50) with HBsAg worked out at 170 nM; in the data set with HBeAg, 150 nM. Moreover, in data set [1], it took 14600 nM to reach half-maximal cytotoxicity (CC50 at 144 h).
In the case of `CC(C)(c1ncc(C(=O)NC23CC(c4nc5ccc(Cl)cc5s4)(C2)C3)o1)S(C)(=O)=O` [Example 22], the results for the IC50 in the data set with HBsAg and in the data set on HBeAg were 720 nM and 470 nM, respectively. The same molecule gave a half-maximal cytotoxic concentration (CC50) at 144 h in data set [1] of 7550 nM.
For `CC(C)(c1cc(C(=O)NC23CC(c4nc5ccc(Cl)cc5s4)(C2)C3)sn1)S(C)(=O)=O` [Example 27], in that order: 840 nM, 650 nM and 8550 nM.
On to `CC(c1nsc(C(=O)NC23CC(c4nc5ccc(Cl)cc5s4)(C2)C3)n1)S(C)(=O)=O` (stereo not drawn) [Example 31], for which the IC50 with HBsAg came to 740 nM; in the data set with HBeAg, 630 nM. Also, in data set [1], the CC50 at 144 h is 5710 nM.
With `CC(C)(c1nsc(C(=O)NC23CC(c4nc5ccc(Cl)cc5s4)(C2)C3)n1)S(C)(=O)=O` [Example 32], the IC50 was 430 nM in the data set on HBsAg and 330 nM in the data set with HBeAg. The CC50 at 144 h in data set [1] came to 2950 nM.
For `CC(n1ccc(C(=O)NC23CC(c4nc5ccc(Cl)cc5s4)(C2)C3)n1)S(C)(=O)=O` (stereo not drawn) [Example 34], in that order: 440 nM, 390 nM and 7010 nM.
As for `CS(=O)(=O)C(Br)c1ccc(C(=O)NC23CC(c4nc5cc(Cl)ccc5s4)(C2)C3)o1` (stereo not drawn) [Example 43], the IC50 in the data set on HBsAg amounted to 500 nM; with HBeAg, 480 nM. In data set [1], the CC50 at 144 h is 22800 nM.
For the molecule `CCC(c1ccc(C(=O)NC23CC(c4nc5cc(Cl)ccc5s4)(C2)C3)o1)S(C)(=O)=O` (stereo not drawn) [Example 44], the IC50 in the data set on HBsAg amounted to 230 nM; in the data set on HBeAg, 160 nM. The molecule also displayed a CC50 at 144 h in data set [1] of 20400 nM.
For the molecule `CC(C)(c1ccc(C(=O)NC23CC(c4nc5cc(Cl)ccc5s4)(C2)C3)o1)S(C)(=O)=O` [Example 45], the IC50 in the data set with HBsAg turned out to be 390 nM; with HBeAg, 250 nM. The CC50 at 144 h in data set [1] is 9940 nM.
`CC(c1ccc(C(=O)NC23CC(c4nc5cc(Cl)ccc5s4)(C2)C3)o1)S(C)(=O)=O` (stereo not drawn) [Example 46]: the figures for the IC50 in the data set with HBsAg and with HBeAg were 370 nM and 230 nM, respectively. Moreover, in data set [1], the CC50 at 144 h is 15300 nM.
With `CS(=O)(=O)C1(c2ccc(C(=O)NC34CC(c5nc6cc(Cl)ccc6s5)(C3)C4)o2)CC1` [Example 47], the figures for the IC50 in the data set on HBsAg and in the data set with HBeAg were 320 nM and 220 nM, respectively. The molecule also came in with a CC50 at 144 h in data set [1] of 6620 nM.
Regarding `C[S+]([O-])C(C)(C)c1ccc(C(=O)NC23CC(c4nc5cc(Cl)ccc5s4)(C2)C3)o1` (stereo not drawn) [Example 50], the IC50 in the data set with HBsAg was found to be 100 nM; in the data set with HBeAg, 80 nM. The molecule also registered a CC50 at 144 h in data set [1] of 1640 nM.
In the case of `CC(c1ccn(C(=O)NC23CC(c4nc5ccc(Cl)cc5s4)(C2)C3)n1)S(C)(=O)=O` (stereo not drawn) [Example 58, N-[3-(6-chloro-1,3-benzothiazol-2-yl)-1-bicyclo[1.1.1]pentanyl]-3-(1-methylsulfonylethyl)pyrazole-1-carboxamide], the values for the IC50 in the data set with HBsAg and with HBeAg were 340 nM and 240 nM, respectively. The molecule further yielded a CC50 at 144 h in data set [1] of 6060 nM.
As for `CC(C)(c1ccn(C(=O)NC23CC(c4nc5ccc(Cl)cc5s4)(C2)C3)n1)S(C)(=O)=O` [Example 60], the IC50 turned out to be 122 nM with HBsAg and 90 nM with HBeAg. In data set [1], this molecule gave a CC50 at 144 h of 4820 nM.
Regarding `CC(C)(c1ccn(C(=O)NC23CC(c4nc5cc(Br)ccc5s4)(C2)C3)n1)S(C)(=O)=O` [Example 61], the values for the IC50 in the data set with HBsAg and in the data set with HBeAg were 110 nM and 80 nM, respectively. This molecule also showed a CC50 at 144 h in data set [1] of 2090 nM.
For the molecule `CS(=O)(=O)C1(c2ccn(C(=O)NC34CC(c5nc6cc(Br)ccc6s5)(C3)C4)n2)CC1` [Example 62], the IC50 in the data set with HBsAg was 70 nM; with HBeAg, 40 nM. The CC50 at 144 h in data set [1] was found to be 3830 nM.
`CS(=O)(=O)C1(c2ccn(C(=O)NC34CC(c5nc6ccc(Cl)cc6s5)(C3)C4)n2)CC1` [Example 63]: the IC50 with HBsAg amounted to 110 nM; in the data set on HBeAg, 80 nM. The CC50 at 144 h in data set [1] worked out at 5060 nM.
`CS(=O)(=O)C1(c2ncc(C(=O)NC34CC(c5nc6ccc(Cl)cc6s5)(C3)C4)o2)CC1` [Example 67, N-[3-(6-chloro-1,3-benzothiazol-2-yl)-1-bicyclo[1.1.1]pentanyl]-2-(1-methylsulfonylcyclopropyl)oxazole-5-carboxamide]: the IC50 in the data set with HBsAg turned out to be 400 nM; in the data set on HBeAg, 320 nM. The molecule also came in with a CC50 at 144 h in data set [1] of 7250 nM.
In the case of `CS(=O)(=O)C(Cl)c1ccc(C(=O)NC23CC(c4nc5cc(Cl)ccc5s4)(C2)C3)o1` (stereo not drawn) [Example 75, 5-(chloro(methylsulfonyl)methyl)-N-(3-(5-chlorobenzo[d]thiazol-2-yl)bicyclo[1.1.1]pentan-1-yl)furan-2-carboxamide], the half-inhibitory concentration (IC50) in the data set with HBsAg came out at 550 nM; in the data set with HBeAg, 430 nM. Moreover, the cytotoxic concentration (CC50) at 144 h in data set [1] was 16800 nM.
